Experimental data: publication PMC4823954, “From fighting depression to conquering tumors: a novel tricyclic thiazepine compound as a tubulin polymerization inhibitor” (Cell Death & Disease, 2016)

How the values were obtained:
[1] = tested on: caspases 8, 9 and 3/7; test: Caspases activity assay in H460TaxR cells; type: cell-based, human; details: 2 μM, 6, 12 and 24 h
Description: The activities of caspases 8, 9, and 3/7 in H460TaxR and H460 cells were examined via a fluorescence-based assay using Caspase-Glo 8, Caspase-Glo 9 Assay kits and Apo-ONE Homogeneous Caspase-3/7 Assay Kit (Promega, Madison, WI, USA). Cells (1 × 10^6 cells in 10 ml medium) were seeded in 10-cm dishes. After 24 h, the cells were treated with TBPT (2 μM) or DMSO for 6, 12 and 24 h. Then, the cells were washed in PBS and collected. Cell lysates were prepared conventionally in RIPA lysis buffer. Protein concentrations were determined using the BCA protein assay. Equal amounts (10 μg) of total protein of samples were added to 96-well culture plates containing 100 μl caspases 8, 9 and 3/7 activity working solution. After the samples were incubated for 1 h at RT, the fluorescence of each well was determined at 499 nm with an emission wavelength of 521 nm using a multimode plate reader (Victor X2, Perkin Elmer, Boston, MA, USA). The fluorescence intensities are proportional to the activities of caspases 8, 9 and 3/7.

[2] = biological target: T1, PIK3CA(E545A) (Homo sapiens, UniProt P42336, E545A); test: KINOMEscan; type: binding; details: read-out: % Ctrl
T1 construct: purchased DiscoveRx KINOMEscan
T1 sequence (P42336 whole entry E545A): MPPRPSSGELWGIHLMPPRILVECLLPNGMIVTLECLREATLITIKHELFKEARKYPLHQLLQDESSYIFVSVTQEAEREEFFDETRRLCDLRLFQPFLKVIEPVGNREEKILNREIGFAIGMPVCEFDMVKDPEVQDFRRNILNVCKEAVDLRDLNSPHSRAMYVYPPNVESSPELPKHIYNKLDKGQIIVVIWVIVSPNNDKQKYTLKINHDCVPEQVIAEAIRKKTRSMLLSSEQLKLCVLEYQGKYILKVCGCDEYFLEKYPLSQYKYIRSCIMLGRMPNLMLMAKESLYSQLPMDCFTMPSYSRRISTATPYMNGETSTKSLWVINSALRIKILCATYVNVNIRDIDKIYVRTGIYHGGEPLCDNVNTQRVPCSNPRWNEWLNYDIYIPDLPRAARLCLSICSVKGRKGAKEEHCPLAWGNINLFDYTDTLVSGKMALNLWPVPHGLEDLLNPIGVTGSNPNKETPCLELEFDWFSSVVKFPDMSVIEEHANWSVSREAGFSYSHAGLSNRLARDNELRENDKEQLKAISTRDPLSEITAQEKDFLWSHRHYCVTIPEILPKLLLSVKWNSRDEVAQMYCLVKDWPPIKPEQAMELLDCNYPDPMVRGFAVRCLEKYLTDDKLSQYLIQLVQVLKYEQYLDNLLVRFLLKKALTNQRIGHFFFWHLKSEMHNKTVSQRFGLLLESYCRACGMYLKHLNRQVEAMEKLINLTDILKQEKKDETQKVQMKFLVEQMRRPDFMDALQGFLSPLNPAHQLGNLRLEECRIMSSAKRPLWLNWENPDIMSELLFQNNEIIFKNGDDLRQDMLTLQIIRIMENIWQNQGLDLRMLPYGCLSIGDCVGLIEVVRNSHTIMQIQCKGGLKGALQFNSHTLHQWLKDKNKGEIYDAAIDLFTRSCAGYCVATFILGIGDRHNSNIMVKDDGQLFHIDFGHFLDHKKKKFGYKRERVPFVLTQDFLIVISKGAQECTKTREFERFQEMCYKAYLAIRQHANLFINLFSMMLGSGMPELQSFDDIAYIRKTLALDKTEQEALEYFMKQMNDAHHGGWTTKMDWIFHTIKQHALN

[3] = tested on: mice hippocampus cells; test: Cell cycle and apoptosis analysis; details: 2 μM
Description: Cell cycle and apoptosis analyses were performed on a Guava EasyCyte Flow Cytometry System (Millipore, Billerica, MA, USA). Cells were seeded in 6-cm culture plates and treated with 2 μM TBPT or an equal volume of DMSO on the next day for the indicated times. To analyze the intracellular DNA content, cells were harvested, washed twice in PBS and fixed in 70% ethanol at −20 °C overnight. After the cells were washed in PBS, they were stained with Guava cell cycle reagent (Millipore) and analyzed via flow cytometry. For cell apoptosis analysis, the cells were harvested, washed in PBS, stained with PI/Annexin V-FITC reagent (Life Technologies) and analyzed by flow cytometry.
The cell cycle (a) and apoptosis (b) analysis of mice hippocampus cells. The new-born mice hippocampus cells were derived and cultured as previously report (F Lu et al. Cell Death and Disease, 2012). Cells were treated with DMSO or TBPT (2 μM) for the indicated times. After the cells were stained, they were analyzed for cell cycle and apoptosis using flow cytometry.

[4] = biological target: T2, FGFR3(G697C) (Homo sapiens, UniProt P22607, G697C); test: KINOMEscan; type: binding; details: read-out: % Ctrl
T2 construct: purchased DiscoveRx KINOMEscan

[5] = biological target: T3, CLK3 (Homo sapiens, UniProt P49761); test: KINOMEscan; type: binding; details: read-out: % Ctrl
T3 construct: purchased DiscoveRx KINOMEscan
Description: (§1) The binding assay for 442 non-mutant kinases was performed using KINOMEscan (DiscoveRx Corporation, Fremont, CA, USA) as reported previously.[58], [59] TBPT was screened at concentrations of 5 and 10 μM to identify the affected kinases. KINOMEscan is based on a competition reaction that quantitatively measures the ability of a test compound to compete with an active site-directed ligand for binding to the kinase active site. […] After the assay plates were incubated with shaking for 1 h, the liganded beads were washed with washing buffer (1 × PBS and 0.05% Tween 20). Then, the beads were re-suspended in elution buffer (1 × PBS, 0.05% Tween 20, and 0.5 μM ligand) and incubated with shaking for 30 min. The kinase concentration in the eluates was measured via qPCR. The results are represented as ‘%Ctrl', which was calculated using the following formula: (test compound signal–positive control signal)/(DMSO signal–positive control signal) × 100%. A lower % Ctrl indicates stronger binding to the kinase active site.

[6] = biological target: T4, CDK8 (Homo sapiens, UniProt P49336); test: KINOMEscan; type: binding; details: read-out: % Ctrl
T4 construct: purchased DiscoveRx KINOMEscan
T4 sequence (P49336 whole entry): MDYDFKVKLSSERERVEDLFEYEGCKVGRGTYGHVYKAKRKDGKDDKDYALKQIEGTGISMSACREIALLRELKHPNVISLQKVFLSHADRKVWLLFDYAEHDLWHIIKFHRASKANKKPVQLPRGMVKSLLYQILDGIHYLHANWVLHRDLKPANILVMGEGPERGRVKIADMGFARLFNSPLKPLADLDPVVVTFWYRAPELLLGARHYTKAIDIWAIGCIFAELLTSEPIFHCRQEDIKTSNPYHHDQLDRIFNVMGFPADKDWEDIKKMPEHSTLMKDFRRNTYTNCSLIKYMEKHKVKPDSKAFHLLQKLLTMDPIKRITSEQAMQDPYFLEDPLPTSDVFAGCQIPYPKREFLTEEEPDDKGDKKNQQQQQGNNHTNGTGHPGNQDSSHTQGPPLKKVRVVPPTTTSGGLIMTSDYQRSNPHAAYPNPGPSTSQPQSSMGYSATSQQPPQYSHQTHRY
Description: as §1

[7] = biological target: T5, ITK (Homo sapiens, UniProt Q08881); test: KINOMEscan; type: binding; details: read-out: % Ctrl
T5 construct: purchased DiscoveRx KINOMEscan
T5 sequence (Q08881 whole entry): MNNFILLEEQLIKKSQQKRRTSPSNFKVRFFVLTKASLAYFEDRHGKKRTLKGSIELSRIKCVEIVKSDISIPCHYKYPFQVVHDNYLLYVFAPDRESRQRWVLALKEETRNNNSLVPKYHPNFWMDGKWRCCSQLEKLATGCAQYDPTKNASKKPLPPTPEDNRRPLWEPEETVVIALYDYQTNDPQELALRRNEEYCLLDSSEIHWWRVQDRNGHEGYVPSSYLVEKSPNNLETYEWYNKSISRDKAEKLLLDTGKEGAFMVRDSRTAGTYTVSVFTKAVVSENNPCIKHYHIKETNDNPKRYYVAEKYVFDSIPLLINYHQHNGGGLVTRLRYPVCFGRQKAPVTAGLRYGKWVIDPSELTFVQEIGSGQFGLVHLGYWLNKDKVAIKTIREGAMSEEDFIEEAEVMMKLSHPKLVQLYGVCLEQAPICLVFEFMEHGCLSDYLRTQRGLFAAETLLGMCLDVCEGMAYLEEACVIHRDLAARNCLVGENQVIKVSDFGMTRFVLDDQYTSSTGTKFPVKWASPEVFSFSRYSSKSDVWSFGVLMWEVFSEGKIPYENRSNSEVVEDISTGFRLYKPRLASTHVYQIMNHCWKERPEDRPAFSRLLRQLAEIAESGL
Description: as §1

[8] = biological target: T6, JAK3(JH1domain-catalytic) (Homo sapiens, UniProt P52333); test: KINOMEscan; type: binding; details: read-out: % Ctrl
T6 construct: JAK3(JH1domain-catalytic); purchased DiscoveRx KINOMEscan
T6 sequence (P52333 813-1124 limits assumed): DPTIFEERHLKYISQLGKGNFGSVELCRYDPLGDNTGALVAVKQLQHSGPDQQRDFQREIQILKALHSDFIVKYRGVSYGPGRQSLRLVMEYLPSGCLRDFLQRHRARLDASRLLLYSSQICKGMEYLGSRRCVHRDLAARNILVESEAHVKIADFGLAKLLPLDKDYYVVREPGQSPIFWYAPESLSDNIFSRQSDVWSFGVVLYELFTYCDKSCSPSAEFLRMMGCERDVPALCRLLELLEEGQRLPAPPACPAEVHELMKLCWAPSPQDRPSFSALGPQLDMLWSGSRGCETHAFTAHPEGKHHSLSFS
Description: as §1

[9] = biological target: T7, AURKA (Homo sapiens, UniProt O14965); test: KINOMEscan; type: binding; details: read-out: % Ctrl
T7 construct: purchased DiscoveRx KINOMEscan
T7 sequence (O14965 whole entry): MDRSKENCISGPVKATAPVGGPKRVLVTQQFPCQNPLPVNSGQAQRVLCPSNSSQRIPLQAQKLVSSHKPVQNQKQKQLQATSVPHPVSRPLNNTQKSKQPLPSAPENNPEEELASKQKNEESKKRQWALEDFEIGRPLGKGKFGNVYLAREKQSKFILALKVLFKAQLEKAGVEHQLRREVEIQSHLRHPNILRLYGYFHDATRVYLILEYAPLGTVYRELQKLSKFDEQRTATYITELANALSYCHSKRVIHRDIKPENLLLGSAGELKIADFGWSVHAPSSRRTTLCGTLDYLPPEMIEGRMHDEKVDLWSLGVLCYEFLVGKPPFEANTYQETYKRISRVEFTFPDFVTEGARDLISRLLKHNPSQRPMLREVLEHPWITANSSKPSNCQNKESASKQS
Description: as §1

[10] = biological target: T8, OSR1 (Homo sapiens, UniProt O95747); test: KINOMEscan; type: binding; details: read-out: % Ctrl
T8 construct: purchased DiscoveRx KINOMEscan
T8 sequence (O95747 whole entry): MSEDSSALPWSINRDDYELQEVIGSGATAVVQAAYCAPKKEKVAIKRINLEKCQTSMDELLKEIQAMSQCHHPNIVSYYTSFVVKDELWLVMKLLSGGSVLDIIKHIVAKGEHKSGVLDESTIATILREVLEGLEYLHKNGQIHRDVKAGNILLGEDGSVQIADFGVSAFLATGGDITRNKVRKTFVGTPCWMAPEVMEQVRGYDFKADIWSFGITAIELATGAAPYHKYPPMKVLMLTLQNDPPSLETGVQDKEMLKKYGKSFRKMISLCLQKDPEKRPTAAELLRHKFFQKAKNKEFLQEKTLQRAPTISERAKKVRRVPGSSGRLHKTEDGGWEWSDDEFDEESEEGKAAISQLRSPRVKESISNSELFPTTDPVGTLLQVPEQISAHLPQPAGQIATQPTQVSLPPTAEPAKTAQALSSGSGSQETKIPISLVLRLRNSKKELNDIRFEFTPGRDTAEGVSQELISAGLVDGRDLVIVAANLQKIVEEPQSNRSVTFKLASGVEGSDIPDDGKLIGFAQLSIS
Description: as §1

[11] = biological target: T9, NEK4 (Homo sapiens, UniProt P51957); test: KINOMEscan; type: binding; details: read-out: % Ctrl
T9 construct: purchased DiscoveRx KINOMEscan
T9 sequence (P51957 whole entry): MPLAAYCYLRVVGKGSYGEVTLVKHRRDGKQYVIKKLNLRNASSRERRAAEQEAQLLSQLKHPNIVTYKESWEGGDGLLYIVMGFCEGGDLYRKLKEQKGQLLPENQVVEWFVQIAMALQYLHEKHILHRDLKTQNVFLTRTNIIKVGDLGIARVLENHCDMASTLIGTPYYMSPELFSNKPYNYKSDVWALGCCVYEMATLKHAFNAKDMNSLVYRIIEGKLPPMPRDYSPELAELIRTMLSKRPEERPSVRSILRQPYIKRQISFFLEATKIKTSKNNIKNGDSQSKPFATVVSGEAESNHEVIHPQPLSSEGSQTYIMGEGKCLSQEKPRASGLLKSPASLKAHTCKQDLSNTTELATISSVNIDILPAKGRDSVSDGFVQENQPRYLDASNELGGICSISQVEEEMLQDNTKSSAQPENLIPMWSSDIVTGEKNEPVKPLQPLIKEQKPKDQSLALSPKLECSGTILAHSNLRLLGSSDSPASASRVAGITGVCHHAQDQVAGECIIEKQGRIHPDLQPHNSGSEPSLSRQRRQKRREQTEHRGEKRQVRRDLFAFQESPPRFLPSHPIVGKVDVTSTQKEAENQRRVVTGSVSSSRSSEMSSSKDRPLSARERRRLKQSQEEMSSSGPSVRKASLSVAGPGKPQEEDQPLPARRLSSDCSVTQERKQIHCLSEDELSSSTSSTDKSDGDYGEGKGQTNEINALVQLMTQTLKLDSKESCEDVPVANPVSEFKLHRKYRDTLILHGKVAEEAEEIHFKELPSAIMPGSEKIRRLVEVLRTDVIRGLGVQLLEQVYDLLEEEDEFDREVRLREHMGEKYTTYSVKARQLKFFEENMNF
Description: as §1

[12] = biological target: T10, TLK2 (Homo sapiens, UniProt Q86UE8); test: KINOMEscan; type: binding; details: read-out: % Ctrl
T10 construct: purchased DiscoveRx KINOMEscan
T10 sequence (Q86UE8 whole entry): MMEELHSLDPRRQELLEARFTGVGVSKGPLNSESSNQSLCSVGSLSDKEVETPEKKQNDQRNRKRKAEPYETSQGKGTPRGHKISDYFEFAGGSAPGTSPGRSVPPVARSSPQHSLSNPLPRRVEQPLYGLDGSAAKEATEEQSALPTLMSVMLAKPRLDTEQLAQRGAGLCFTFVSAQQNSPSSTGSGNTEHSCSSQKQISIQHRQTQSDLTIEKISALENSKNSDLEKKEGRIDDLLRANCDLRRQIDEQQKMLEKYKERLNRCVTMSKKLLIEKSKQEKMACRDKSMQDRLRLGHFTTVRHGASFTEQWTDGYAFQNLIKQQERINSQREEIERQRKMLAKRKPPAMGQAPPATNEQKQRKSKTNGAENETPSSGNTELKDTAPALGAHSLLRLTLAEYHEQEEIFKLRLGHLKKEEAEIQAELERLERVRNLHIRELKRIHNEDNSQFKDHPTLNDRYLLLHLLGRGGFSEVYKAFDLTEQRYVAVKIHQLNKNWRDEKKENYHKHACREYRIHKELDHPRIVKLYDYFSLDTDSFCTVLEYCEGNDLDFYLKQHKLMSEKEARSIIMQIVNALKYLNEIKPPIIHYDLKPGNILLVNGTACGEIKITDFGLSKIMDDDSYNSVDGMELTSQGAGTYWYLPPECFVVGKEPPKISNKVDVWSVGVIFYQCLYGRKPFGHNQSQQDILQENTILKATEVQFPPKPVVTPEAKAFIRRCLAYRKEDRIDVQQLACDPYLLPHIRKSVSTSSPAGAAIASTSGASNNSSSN
Description: as §1

[13] = tested on: H460TaxR; test: Immunofluorescence staining for microtubule structure; type: cell-based, human; details: 2 μM, 24 h
Description: (§2) The cells were washed in PBS and then fixed in paraformaldehyde (4% v/v) for 10 min. After the cells were washed three times in PBS, they were blocked with 5% (w/v) BSA for 30 min at RT. Then, α-tubulin antibody (CST, Beverly, MA, USA) was incubated with cells in a humid chamber overnight at 4 °C. After the cells were washed three times in PBS, they were incubated with goat anti-rabbit IgG-FITC (Jackson ImmunoResearch, West Grove, PA, USA) for 1 h at 37 °C. Then, the cells were mounted with mounting medium containing DAPI (Vector Lab, Peterborough, UK) after they were washed three times in PBS. Finally, the cells were observed and imaged using a fluorescence microscope (Olympus IX71, Tokyo, Japan).

[14] = tested on: H460; test: as above; type: cell-based, human; details: H460, 2 μM, 24 h
Description: as §2

[15] = plasma stability; type: in vitro ADME; details: human, read-out: T1/2 in human plasma
Description: (§3) As in vivo investigations are generally time consuming and expensive, it is advantageous to eliminate those compounds that are not suitable for animal experiments. One of the necessary steps is to screen the initial hits using assays testing their possible behaviors in vivo. To evaluate the drug-like properties of TBPT, a panel of in vitro assays was preformed (Table 1). The parallel artificial membrane permeability assay (PAMPA) was used to evaluate the cell permeability of the compounds. Compounds with a Pe >[…] are classified as highly permeable. […] The Caco-2 assay was used to predict the oral absorption values of the compounds in vivo. Compounds with a Caco-2 efflux ratio >2 may be subject to active efflux and should not be developed further. […] The half-life (T1/2) in human liver microsomes is used to predict the metabolism properties of compounds in vivo. […] A very long T1/2 (>24 h) increases the risk of cumulative toxicity and is not desirable. […] T1/2 in plasma indicates the stability of the drug in human blood; the high T1/2 values of these compounds indicated better stability in vivo. Plasma protein binding influences the distribution of drugs into body tissues, and compounds with high plasma protein binding (>99%) are limited in terms of the amount of free compound that are available to act on the targeted tissue. […]

[16] = plasma protein binding; type: in vitro ADME
Description: as §3

SMILES: Cc1ccc(C2=Nc3cccnc3S(=O)(=O)c3ccccc32)cc1 [TBPT, 6-(p-tolyl)benzo[f] pyrido[2,3-b][1,4] thiazepine 11,11-dioxide]
- activities of caspases 8, 9 and 3/7 [1]: activated caspases 8, 9 and 3/7 in a time-dependent manner
- remaining binding at 5 µM ([2]; 5 μM): 100%
- remaining binding at 10 µM ([2]; 10 μM): 100%
- cell cycle arrest or apoptosis [3]: very little cell cycle arrest or apoptosis
- remaining binding at 5 µM ([4]; 5 μM): 100%
- remaining binding at 10 µM ([4]; 10 μM): 82%
- remaining binding at 5 µM ([5]; 5 μM): 100%
- remaining binding at 10 µM ([5]; 10 μM): 100%
- remaining binding at 5 µM ([6]; 5 μM): 94%
- remaining binding at 10 µM ([6]; 10 μM): 100%
- remaining binding at 5 µM ([7]; 5 μM): 100%
- remaining binding at 10 µM ([7]; 10 μM): 90%
- remaining binding at 5 µM ([8]; 5 μM): 100%
- remaining binding at 10 µM ([8]; 10 μM): 100%
- remaining binding at 5 µM ([9]; 5 μM): 100%
- remaining binding at 10 µM ([9]; 10 μM): 100%
- remaining binding at 5 µM ([10]; 5 μM): 100%
- remaining binding at 10 µM ([10]; 10 μM): 87%
- remaining binding at 5 µM ([11]; 5 μM): 65%
- remaining binding at 10 µM ([11]; 10 μM): 99%
- remaining binding at 5 µM ([12]; 5 μM): 100%
- remaining binding at 10 µM ([12]; 10 μM): 100%
- microtubule organization in live cells [13]: disordered microtubule fragments
- microtubule organization in live cells [14]: disordered microtubule fragments
- half-life [15]: > 50 h
- fraction unbound [16]: 0.0164
